Patent US20240016788A1, “PHARMACEUTICAL COMPOSITION FOR PREVENTING OR TREATING DIABETIC AND POSTMENOPAUSAL OSTEOPOROSIS, CONTAINING ADIPORON” (PnP Biopharm Co., Ltd., priority 2020, published 2024)

Columns and labels:
Format in all cases: in vivo
[1] = system: type 2 diabetic db/db mice; experiment: Histological examination (H&E, trichrome, Safranin O) of ilium (femur) and lumbar vertebra 5, db/db mice; details: adiporon 30 mg/kg/day, 4 weeks
Procedure: A leptin receptor-defective type 2 diabetic animal model (db/db mice) and a normal control group (db/m mice) were used, and the experiment was performed by dividing into 4 groups as follows: non-diabetic control group (dm cont, n=8), non-diabetic adiporon treatment group (dm+AdipoR, n=8), diabetic control group (db cont, n=8) and diabetic adiporon treatment group (db+AdipoR, n=8). The control group was fed a normal diet, and the adiporon treatment group was fed a diet comprising adiporon (30 mg/kg/day) for 4 weeks from 16 weeks of age. During the experiment, body weight was measured every week, fasting blood glucose was measured using an Accu-Chek meter (Roche Diagnostics, St. Louis, MO) every 2 weeks after blood was collected from the tail vein, and glycated hemoglobin (HbA1c) was measured every 4 weeks using a […] automatic analyzer (Bayer healthcare LLC, IN) after blood was collected from the tail vein. The temperature and humidity of the breeding room were maintained at 20˜25° C. and 50˜60%, respectively, and the lights were turned on and off at 12-hour intervals. After removing tissues of the femur and L5 lumbar vertebrae, some of them were fixed in 10% formalin for immunostaining and decalcified. Thereafter, after neutralization with 0.5M Phosphate buffer (pH 7.4), washing, and embedding in paraffin. Tissue sections were cut to a thickness of 5 μm, and hematoxylin and eosin staining (H&E staining), trichrome staining, and Safranin O staining were performed. In bone tissue, double immunofluorescence staining method was performed using anti-adiponectin receptor 1/2 antibody, anti-perilipin-1 antibody, anti-RANKL antibody, anti-TNF-α antibody, and ApopTag Fluorescein In Situ Apoptosis Detection Kit (Chemicon International, Temecula, CA) and expression was observed using a confocal microscope.

[2] = system: ovariectomized C57BL/6 mice; experiment: Western blot of bone tissue, ovariectomized mice; details: for Decreased expression of adiponectin-receptor 1/2 (western blot): 6 weeks
Procedure: 7 weeks after ovariectomization or sham surgery of 7-week-old C57BL/6 mice, normal feed group (adiporon non-administered group; control group) administration group, 2.5 mg/kg day or 25 mg/kg day, respectively Feed comprising adiporon was consumed for 6 weeks from 14 weeks of age. Body weight was measured every week during the experiment period, and the experiment was conducted after 6 weeks of administration.
Protein was extracted using Pro-Prep Protein Extraction Solution (Intron Biotechnology, Gyeonggi-Do, Korea), and SDS-PAGE (sodium dodecyl sulfate-polyacrylamide gel electrophoresis) was performed. The separated protein was transferred to a nitrocellulose membrane (Amersham Co., Buckinghamshire, England) and treated with Tris buffered saline (in TBS-T: 0.1% Tween-20 in Tris buffer saline, pH 7.5) containing 3% skim milk. After blocking for an hour, the blots were reacted in adiponectin receptor 1/2, total AMPK, phospho-Thr172AMPK, PGC-1α, Nrf-2, SOD1/2, NQO1, HO-1, NOX4, NF-κB and β-actin primary antibody solution, washing, reacting with a secondary antibody against each primary antibody, and then photosensitizing through ECL (Pierce, Rockford IL) to confirm the band. The expression level of each protein was normalized according to β-actin.

[3] = system: type 2 diabetic db/db mice; experiment: Serum ACP5/TRAP, osteocalcin and urine deoxypyridinoline by ELISA, db/db mice; details: adiporon 30 mg/kg/day, 4 weeks
Procedure: (§1) A leptin receptor-defective type 2 diabetic animal model (db/db mice) and a normal control group (db/m mice) were used, and the experiment was performed by dividing into 4 groups as follows: non-diabetic control group (dm cont, n=8), non-diabetic adiporon treatment group (dm+AdipoR, n=8), diabetic control group (db cont, n=8) and diabetic adiporon treatment group (db+AdipoR, n=8). The control group was fed a normal diet, and the adiporon treatment group was fed a diet comprising adiporon (30 mg/kg/day) for 4 weeks from 16 weeks of age. During the experiment, body weight was measured every week, fasting blood glucose was measured using an Accu-Chek meter (Roche Diagnostics, St. Louis, MO) every 2 weeks after blood was collected from the tail vein, and glycated hemoglobin (HbA1c) was measured every 4 weeks using a […] automatic analyzer (Bayer healthcare LLC, IN) after blood was collected from the tail vein. The temperature and humidity of the breeding room were maintained at 20˜25° C. and 50˜60%, respectively, and the lights were turned on and off at 12-hour intervals. In both experiments, blood collected from each mouse was allowed to stand at room temperature for 30 minutes, and then centrifuged at 3000 rpm for 15 minutes to obtain serum. Blood levels of tartrate-resistant acid phosphatase (TRAP/ACP5) and osterocalcin concentration were measured by ELISA. In addition, 8-hydroxy-deoxyguanosine, a DNA damage marker caused by oxidative stress, and isoprostane, a marker of oxidative stress caused by lipid peroxidation caused by free fatty acids, and deoxypyridinoline (DPP), which indicates the function of osteoclasts, were measured in 24-hour urine concentrations by ELISA method.

non-diabetic db/m mice = experiment: Body weight, blood biochemistry and 24-hour urine oxidative stress in non-diabetic db/m mice; details: adiporon 30 mg/kg/day in diet for 4 weeks, mean ± SD
Procedure: as §1

[4] = ilium (femur), adiporon 2.5 or 25 mg/kg day, dose not distinguished
[5] = vertebrae (lumbar vertebrae 5), adiporon 2.5 or 25 mg/kg day, dose not distinguished

In the case of Cl.O=C(COc1ccc(C(=O)c2ccccc2)cc1)NC1CCN(Cc2ccccc2)CC1 [adiporon], the “Decrease in the ilium growth plate (thickness)” value ([1]; ilium (femur)) is reported as “recovered”, the “Increase in adipose tissue in tissue” value ([1]; ilium (femur)) is reported as “recovered” and the “Increase in fibrosis in tissue” value ([1]; ilium (femur)) is reported as “recovered”. For the same molecule, the “Increase in adipose tissue in tissue” value ([1]; vertebrae (lumbar vertebrae 5)) was “reversed”, the “Increase in fibrosis in tissue” value ([1]; vertebrae (lumbar vertebrae 5)) was “reversed” and the “Decreased expression of adiponectin-receptor 1/2 (western blot)” value (“Decreased expression” for short) ([2]; ilium (femur), adiporon 2.5 mg/kg day) was “restored”. The “Decreased expression” value ([2]; ilium (femur), adiporon 25 mg/kg day) was “restored”, the “Activation of adiponectin-receptor 1-AMPK” value [2, 4] was “increased” and the “Expression of PGC-1α” value [2, 4] was “increased”. For the same molecule, the “Expression of adiponectin-receptor 2-PPARα” value [2, 4] was “increased”, the “Decreased expression” value ([2]; vertebrae (lumbar vertebrae 5), adiporon 2.5 mg/kg day) was “restored” and the “Decreased expression” value ([2]; vertebrae (lumbar vertebrae 5), adiporon 25 mg/kg day) was “restored”. For the same molecule, the “Activation of adiponectin-receptor 1-AMPK” value [2, 5] was “increased”, the “Expression of PGC1α” value [2, 5] was “increased” and the “Expression of adiponectin-receptor 2-PPARα” value [2, 5] was “increased”. For the same molecule, the “Decreased serum ACP5/TRAP concentration” value ([3]; ELISA) was “restored”, the “Decreased serum osteocalcin concentration” value ([3]; ELISA) was “restored” and the “Increased concentration of deoxypyridinoline in urine” value ([3]; P<0.001) was “reversed”. The Blood glucose (non-diabetic db/m mice) was 136 ± 8 mg/dL, the HbA1c (non-diabetic db/m mice) was 3.8 ± 0.2% and the “Serum NEFA” value (non-diabetic db/m mice) was 0.67 ± 0.23 mEq/I. The “Serum TC” value (non-diabetic db/m mice) was 2.5 ± 0.4 mmol/L, the “Serum TG” value (non-diabetic db/m mice) was 1.4 ± 0.2 mmol/L and the Serum adiponectin (non-diabetic db/m mice) was 11214 ± 1214 ng/mL. The “Urinary 8-OHDG” value (non-diabetic db/m mice) was 36.5 ± 14.5 ng/24 h and the Urinary isoprostane (non-diabetic db/m mice) was 4.3 ± 2.2 ng/24 h.
